Measured values: ChEMBL document CHEMBL1201862, “PubChem BioAssay data set” (2004)
Calls of active or inactive are those of the source.

How the values were obtained:
[1] = Luminescence Cell-Based Dose Retest to Confirm Inhibitors of Cancer Stem Cells. [Related pubchem assays (depositor defined):AID2717, AID2721]; format: functional; settings: Homo sapiens
[2] = target: T1, Heat shock factor protein 1 (Mus musculus, UniProt P38532); assay: HSF1 potentiators in luciferase reporter cells, confirmation, cell-based, NIH3T3, luminescence, dose retest (AID 435004); format: functional;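 note: stress induced by proteasome inhibitor MG132 added 30 min after compound; luciferase reporter driven by HSF1 response element in NIH3T3 cells; actives raise luminescence as potentiators of the MG132 stress response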
T1 sequence (P38532 whole entry): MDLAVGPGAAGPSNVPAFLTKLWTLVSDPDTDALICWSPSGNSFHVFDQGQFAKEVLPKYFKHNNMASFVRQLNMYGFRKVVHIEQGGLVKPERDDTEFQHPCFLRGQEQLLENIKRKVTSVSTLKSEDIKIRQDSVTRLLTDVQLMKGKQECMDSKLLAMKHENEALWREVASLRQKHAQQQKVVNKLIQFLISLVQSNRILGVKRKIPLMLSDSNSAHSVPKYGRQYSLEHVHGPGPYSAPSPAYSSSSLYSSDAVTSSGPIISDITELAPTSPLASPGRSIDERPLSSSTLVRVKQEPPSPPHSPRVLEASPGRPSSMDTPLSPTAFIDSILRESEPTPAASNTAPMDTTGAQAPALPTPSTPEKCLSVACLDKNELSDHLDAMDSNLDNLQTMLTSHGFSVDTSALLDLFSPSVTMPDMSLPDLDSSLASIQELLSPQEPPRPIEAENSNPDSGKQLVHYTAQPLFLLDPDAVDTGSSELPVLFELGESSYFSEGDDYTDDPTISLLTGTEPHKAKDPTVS

[3] = cytotoxicity in HMLE control line with eGFP shRNA, dose response, counter-screen for HMLE_sh_ECad selective toxicity project, cell-based, HMLE_sh_eGFP, luminescence (AID 463074); format: functional, Homo sapiens;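 note: HMLE human mammary epithelial cells expressing control shRNA against eGFP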
Escherichia coli = assay: microbe, parasite or virus in culture
[4] = target: Latent membrane protein 1 (Human herpesvirus 4 (strain B95-8), UniProt P03230); assay: TES1-eGFP NF-kB reporter inhibition versus Tet-On dsRED, dose response, selectivity assay for LMP1 NF-kB inhibitor project, imaging, HEK293T, dual-color eGFP/dsRED, cherry-picks (AID 588398); format: functional, cell-based
[5] = insulin promoter down-regulators in MIN6 cells, imaging, high-content screening, mouse beta cells (AID 1628); format: functional
[6] = cytotoxicity in MIN6 insulinoma cells, dose response, cytotoxicity control, cell-based, mouse insulinoma (AID 2122); format: functional;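 note: confirmatory high-throughput counterscreen run to flag cytotoxic compounds; mouse MIN-6 beta cells carrying an insulin promoter eGFP reporter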
Cytochrome P450 2C19 = Cytochrome P450 2C19 (Homo sapiens, UniProt P33261); assay: Cytochrome panel assay with activity outcomes. Panel member name: p450-cyp2c19 Compounds with AC50 equal or less than 10 uM are considered active; format: functional; settings: read-out: AC50
Cytochrome P450 2D6 = Cytochrome P450 2D6 (Homo sapiens, UniProt P10635);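 note: CYP2D6 member of a cytochrome P450 panel assay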
[7] = inhibitors of firefly luciferase expression or activity, dose response, H4 neuroglioma cells, luminescence (AID 1990); format: functional, cell-based
[8] = Luminescence Cell-Based Dose Response HTS to Identify Inhibitors of 5'UTR Stem-Loop Driven Prion Protein mRNA Translation in H4 Neuroglioblastoma Cells. [Related pubchem assays: 1827 (Project Summary), 1813 (Primary HTS)]; format: functional
[9] = inhibitors of SNCA 5'UTR-driven reporter translation, confirmation, H4 neuroglioma cells, luminescence (AID 1988); format: functional, cell-based
[10] = microbe, parasite or virus in culture; format: functional; settings: Mycobacterium tuberculosis
CAAX prenyl protease 2 = CAAX prenyl protease 2 (Homo sapiens, UniProt Q9Y256); assay: human Rce1 protease inhibitors, dose response, biochemical, yeast membranes, quenched-peptide fluorescence, cherry-pick (AID 588849)
BJ [11] = assay: cytotoxicity toward BJ-TERT fibroblasts, dose response, cell-based, RAS-independent, luminescence (AID 1933); format: functional; settings: Homo sapiens
[12] = target: T1, Heat shock factor protein 1; assay: inhibition of MG132-induced HSE-luciferase signal, confirmation, cell-based, NIH3T3, luminescence, dose retest (AID 2382); format: functional;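 note: NIH3T3 fibroblasts with HSF1-driven luciferase reporter stressed by proteasome inhibitor MG132; luminescence from HSF1-driven luciferase expression after 8 hours of MG132 stress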
BJ [13] = assay: cells; format: functional, cell-based; settings: Homo sapiens
BJ [14] = assay: cytotoxicity toward BJ-TERT-LT-ST fibroblasts, dose response, cell-based, RAS-independent, luminescence (AID 1935); format: functional; settings: Homo sapiens;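 note: BJ fibroblasts immortalized with TERT plus LT and ST oncogenes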
[15] = cytotoxicity toward DRD oncogenic fibroblasts, dose response, cell-based, non-viral oncogenic, luminescence (AID 1934); format: functional; settings: Homo sapiens
BJ [16] = assay: cytotoxicity toward Ras-transformed BJeLR fibroblasts, dose response, cell-based, alamar blue fluorescence, cherrypicked samples (AID 2631); format: functional; settings: Homo sapiens;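 note: confirmatory dose-response assay in RAS-dependent BJ fibroblasts engineered with TERT, LT and ST, with cytotoxicity read by fluorescence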
Exodeoxyribonuclease V = Exodeoxyribonuclease V (Escherichia coli (strain K12), UniProt P04993+P07648+P08394); assay: E. coli RecBCD inhibitors, dose response, counter-screen for AddAB inhibitor project, absorbance, V66 E. coli, mutant T4 phage (AID 492957); format: functional, cell-based, Escherichia coli str. K-12 substr. MG1655
Nonstructural protein 1 = Nonstructural protein 1 (Influenza A virus, UniProt Q194T2); format: functional, Influenza A virus (A/California/07/2009(H1N1))
[17] = Counterscreen for AddAB inhibitors: absorbance-based bacterial cell-based high throughput dose response assay for inhibitors of bacterial viability. [Related pubchem assays (depositor defined):AID435030, AID449728, AID449731, AID488942, AID488955, AID488956]; format: functional
[18] = human group III sPLA2 inhibitors, dose response, biochemical, QFRET, IC50 (AID 743457);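 note: green fluorescence rise as the enzyme cleaves BODIPY PC-A2 in liposomes; potency for inhibition of the enzyme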
Protein skinhead-1 = target: T2, Protein skinhead-1 (Caenorhabditis elegans, UniProt P34707); format: functional
T2 sequence (P34707 whole entry): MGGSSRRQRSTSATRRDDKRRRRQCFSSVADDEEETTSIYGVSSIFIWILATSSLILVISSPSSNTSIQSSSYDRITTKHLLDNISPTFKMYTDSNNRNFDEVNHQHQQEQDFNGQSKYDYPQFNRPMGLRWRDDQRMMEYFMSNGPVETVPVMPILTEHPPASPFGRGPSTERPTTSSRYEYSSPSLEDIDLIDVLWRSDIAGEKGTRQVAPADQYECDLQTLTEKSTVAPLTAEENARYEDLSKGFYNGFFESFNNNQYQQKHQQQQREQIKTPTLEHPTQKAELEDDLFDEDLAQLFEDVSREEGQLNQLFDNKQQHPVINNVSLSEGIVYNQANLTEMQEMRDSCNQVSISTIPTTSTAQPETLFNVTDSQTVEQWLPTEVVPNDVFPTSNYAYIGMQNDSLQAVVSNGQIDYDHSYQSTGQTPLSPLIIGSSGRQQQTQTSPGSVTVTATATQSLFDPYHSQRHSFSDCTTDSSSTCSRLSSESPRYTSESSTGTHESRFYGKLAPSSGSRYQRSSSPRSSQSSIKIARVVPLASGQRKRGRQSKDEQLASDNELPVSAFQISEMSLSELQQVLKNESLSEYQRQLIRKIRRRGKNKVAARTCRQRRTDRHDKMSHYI

fMet-Leu-Phe receptor = target: T3, fMet-Leu-Phe receptor (Homo sapiens, UniProt P21462); assay: FPR ligands, dose response (AID 519); format: functional
T3 sequence (P21462 whole entry): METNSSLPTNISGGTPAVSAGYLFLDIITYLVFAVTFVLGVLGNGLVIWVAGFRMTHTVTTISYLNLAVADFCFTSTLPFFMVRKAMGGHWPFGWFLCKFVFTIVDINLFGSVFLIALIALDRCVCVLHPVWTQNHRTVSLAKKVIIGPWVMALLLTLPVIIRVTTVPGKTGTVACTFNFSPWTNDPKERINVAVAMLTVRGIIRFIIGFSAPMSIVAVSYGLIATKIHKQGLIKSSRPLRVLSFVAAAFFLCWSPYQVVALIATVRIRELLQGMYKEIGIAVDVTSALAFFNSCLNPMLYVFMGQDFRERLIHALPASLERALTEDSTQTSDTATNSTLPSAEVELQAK

Cytochrome P450 1A2 = target: T4, Cytochrome P450 1A2 (Homo sapiens, UniProt P05177);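 note: PubChem cytochrome P450 panel assay, CYP1A2 panel member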
T4 sequence (P05177 whole entry): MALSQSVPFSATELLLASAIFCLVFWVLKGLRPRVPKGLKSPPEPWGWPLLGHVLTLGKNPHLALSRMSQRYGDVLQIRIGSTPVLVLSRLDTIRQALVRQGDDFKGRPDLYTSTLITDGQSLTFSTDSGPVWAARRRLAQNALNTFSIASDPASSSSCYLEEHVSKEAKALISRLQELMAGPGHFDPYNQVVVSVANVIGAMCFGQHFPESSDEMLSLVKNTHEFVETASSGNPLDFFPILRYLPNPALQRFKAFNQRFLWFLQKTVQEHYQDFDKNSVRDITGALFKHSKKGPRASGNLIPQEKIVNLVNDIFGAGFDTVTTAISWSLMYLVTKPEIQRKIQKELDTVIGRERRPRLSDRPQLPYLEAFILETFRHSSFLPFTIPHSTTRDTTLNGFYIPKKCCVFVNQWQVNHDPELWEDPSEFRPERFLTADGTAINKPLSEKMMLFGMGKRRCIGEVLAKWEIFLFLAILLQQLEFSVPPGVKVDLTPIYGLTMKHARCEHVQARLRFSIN

[19] = target: T5, Mannose-6-phosphate isomerase (Homo sapiens, UniProt P34949); assay: PMI enzyme inhibitors, confirmation, biochemical, fluorescence intensity (AID 1535)
T5 sequence (P34949 whole entry): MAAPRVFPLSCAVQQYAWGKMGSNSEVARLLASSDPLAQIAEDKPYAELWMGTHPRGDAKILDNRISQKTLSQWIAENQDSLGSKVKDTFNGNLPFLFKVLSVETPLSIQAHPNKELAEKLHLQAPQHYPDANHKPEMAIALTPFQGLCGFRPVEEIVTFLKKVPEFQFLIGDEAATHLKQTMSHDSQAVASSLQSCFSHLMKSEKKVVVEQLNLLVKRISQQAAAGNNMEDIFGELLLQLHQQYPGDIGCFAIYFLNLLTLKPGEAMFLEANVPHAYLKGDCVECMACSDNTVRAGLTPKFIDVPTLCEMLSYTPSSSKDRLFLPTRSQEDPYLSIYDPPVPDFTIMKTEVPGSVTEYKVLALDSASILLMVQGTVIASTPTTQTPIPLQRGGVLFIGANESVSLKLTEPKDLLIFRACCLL

Phosphomannomutase 2 = Phosphomannomutase 2 (Homo sapiens, UniProt O15305); assay: Counter screen SAR assay for PMM2 inhibitors via a fluorescence intensity assay. [Related pubchem assays (depositor defined):AID1545, AID1574]
[20] = target: Phosphoethanolamine/phosphocholine phosphatase (Homo sapiens, UniProt Q8TCT1); assay: SAR assay for compounds that inhibit PHOSPHO1. [Related pubchem assays (depositor defined):AID1545, AID1565, AID1574]
Phospholipase D1 = Phospholipase D1 (Homo sapiens, UniProt Q13393); assay: PLD1 inhibitor potency in cells, dose response (AID 602151); format: functional;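 note: cellular PLD1 assay in Calu-1 cells stimulated with PMA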
Phospholipase D2 = Phospholipase D2 (Homo sapiens, UniProt O14939); assay: PLD2 inhibitor potency in cells, dose response (AID 602147); format: functional;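 note: cellular assay in HEK293 cells overexpressing GFP-tagged PLD2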
Sequence of Phospholipase D2 (O14939 whole entry): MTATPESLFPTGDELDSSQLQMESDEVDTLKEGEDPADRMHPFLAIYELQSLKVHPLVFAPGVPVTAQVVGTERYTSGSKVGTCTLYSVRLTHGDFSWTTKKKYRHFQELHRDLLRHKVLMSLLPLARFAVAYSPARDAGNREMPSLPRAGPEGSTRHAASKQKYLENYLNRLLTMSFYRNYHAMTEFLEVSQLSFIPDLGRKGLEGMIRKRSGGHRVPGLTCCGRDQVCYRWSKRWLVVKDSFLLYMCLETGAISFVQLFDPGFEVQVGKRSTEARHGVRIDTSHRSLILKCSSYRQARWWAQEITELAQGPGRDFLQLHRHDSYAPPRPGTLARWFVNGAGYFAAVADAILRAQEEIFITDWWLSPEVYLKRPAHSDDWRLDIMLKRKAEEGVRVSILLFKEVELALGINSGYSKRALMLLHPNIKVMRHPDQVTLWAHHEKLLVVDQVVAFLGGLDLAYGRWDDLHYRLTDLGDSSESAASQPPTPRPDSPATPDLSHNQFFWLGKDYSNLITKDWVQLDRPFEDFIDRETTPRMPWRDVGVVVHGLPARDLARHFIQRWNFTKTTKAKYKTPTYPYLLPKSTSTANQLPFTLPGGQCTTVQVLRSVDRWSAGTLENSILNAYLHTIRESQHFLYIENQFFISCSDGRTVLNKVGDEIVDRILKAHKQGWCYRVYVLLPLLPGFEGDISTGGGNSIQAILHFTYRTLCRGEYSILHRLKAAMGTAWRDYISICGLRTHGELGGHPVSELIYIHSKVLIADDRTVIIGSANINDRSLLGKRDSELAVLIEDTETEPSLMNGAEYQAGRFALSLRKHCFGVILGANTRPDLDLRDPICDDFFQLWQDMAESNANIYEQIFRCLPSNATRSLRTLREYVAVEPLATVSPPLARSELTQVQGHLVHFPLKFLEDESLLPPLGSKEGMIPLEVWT

Sequence of Nonstructural protein 1 (Q194T2 whole entry): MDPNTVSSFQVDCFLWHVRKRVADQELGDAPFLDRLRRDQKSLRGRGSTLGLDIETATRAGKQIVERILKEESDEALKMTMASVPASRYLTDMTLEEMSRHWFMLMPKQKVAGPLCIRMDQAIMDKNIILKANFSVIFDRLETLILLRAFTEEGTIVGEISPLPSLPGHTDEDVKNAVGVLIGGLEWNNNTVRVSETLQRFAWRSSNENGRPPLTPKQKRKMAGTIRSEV
Sequence of Phospholipase D1 (Q13393 whole entry): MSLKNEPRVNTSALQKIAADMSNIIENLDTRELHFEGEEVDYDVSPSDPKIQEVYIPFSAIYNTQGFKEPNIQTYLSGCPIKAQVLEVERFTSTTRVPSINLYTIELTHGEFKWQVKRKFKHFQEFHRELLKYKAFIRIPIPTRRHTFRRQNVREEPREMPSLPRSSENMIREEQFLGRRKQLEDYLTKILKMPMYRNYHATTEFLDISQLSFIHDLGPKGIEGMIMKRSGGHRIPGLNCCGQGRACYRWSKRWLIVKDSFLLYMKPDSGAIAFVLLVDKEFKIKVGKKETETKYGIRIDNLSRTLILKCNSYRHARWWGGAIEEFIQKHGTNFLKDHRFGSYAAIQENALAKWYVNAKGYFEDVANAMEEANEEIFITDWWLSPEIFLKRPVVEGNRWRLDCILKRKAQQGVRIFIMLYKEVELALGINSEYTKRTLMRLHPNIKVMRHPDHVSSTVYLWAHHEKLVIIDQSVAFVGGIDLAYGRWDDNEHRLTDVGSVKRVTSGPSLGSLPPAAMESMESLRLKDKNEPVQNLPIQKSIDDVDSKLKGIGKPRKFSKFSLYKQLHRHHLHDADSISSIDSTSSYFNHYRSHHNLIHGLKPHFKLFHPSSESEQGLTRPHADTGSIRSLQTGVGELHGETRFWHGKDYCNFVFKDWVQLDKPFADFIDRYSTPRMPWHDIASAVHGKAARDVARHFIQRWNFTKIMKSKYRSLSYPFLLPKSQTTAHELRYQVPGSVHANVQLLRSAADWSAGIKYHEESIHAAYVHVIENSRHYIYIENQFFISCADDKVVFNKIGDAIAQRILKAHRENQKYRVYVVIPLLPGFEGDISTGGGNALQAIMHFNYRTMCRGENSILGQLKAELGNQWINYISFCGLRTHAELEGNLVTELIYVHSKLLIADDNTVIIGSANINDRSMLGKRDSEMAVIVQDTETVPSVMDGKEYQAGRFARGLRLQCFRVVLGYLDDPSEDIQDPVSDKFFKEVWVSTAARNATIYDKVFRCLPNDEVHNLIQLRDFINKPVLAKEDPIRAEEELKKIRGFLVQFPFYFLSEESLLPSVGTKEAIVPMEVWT
Sequence of Phosphoethanolamine/phosphocholine phosphatase (Q8TCT1 whole entry): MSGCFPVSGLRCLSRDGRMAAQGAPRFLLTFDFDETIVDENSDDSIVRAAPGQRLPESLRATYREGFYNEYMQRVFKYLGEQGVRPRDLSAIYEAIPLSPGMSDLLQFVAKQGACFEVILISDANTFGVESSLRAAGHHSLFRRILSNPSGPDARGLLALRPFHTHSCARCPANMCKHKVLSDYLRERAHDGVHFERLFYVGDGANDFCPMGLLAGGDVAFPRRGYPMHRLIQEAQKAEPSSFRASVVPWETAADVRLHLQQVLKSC
Sequence of Cytochrome P450 2D6 (P10635 whole entry): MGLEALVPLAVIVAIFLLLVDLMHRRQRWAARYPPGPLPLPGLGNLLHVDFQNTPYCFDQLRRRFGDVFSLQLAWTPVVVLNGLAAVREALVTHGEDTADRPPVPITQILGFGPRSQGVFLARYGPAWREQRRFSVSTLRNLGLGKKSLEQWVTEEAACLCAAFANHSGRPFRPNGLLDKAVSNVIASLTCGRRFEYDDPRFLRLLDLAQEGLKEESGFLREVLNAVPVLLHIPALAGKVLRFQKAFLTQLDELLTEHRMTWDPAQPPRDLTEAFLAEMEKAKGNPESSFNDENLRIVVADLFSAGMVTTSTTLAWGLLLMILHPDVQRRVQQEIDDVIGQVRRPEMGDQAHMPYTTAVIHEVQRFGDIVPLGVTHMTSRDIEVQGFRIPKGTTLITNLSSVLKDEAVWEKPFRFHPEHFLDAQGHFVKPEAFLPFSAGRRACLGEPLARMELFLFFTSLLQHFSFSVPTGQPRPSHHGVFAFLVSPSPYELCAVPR
Sequence of Phosphomannomutase 2 (O15305 whole entry): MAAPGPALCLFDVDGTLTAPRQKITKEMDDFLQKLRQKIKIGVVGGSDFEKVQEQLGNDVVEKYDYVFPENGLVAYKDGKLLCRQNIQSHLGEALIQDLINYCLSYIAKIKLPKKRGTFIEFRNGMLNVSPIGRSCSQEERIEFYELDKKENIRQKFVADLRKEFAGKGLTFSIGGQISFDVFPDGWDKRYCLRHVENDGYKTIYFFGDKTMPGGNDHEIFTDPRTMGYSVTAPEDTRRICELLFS
Sequence of CAAX prenyl protease 2 (Q9Y256 whole entry): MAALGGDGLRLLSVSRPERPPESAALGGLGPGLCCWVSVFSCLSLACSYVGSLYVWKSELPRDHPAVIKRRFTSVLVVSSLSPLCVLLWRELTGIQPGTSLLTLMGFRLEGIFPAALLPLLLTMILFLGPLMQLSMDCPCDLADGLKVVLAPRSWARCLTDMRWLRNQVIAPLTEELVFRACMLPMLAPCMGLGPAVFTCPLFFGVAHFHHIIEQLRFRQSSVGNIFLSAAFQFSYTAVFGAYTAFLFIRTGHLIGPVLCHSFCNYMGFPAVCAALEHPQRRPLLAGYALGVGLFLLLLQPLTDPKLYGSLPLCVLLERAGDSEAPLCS
Sequence of Cytochrome P450 2C19 (P33261 whole entry): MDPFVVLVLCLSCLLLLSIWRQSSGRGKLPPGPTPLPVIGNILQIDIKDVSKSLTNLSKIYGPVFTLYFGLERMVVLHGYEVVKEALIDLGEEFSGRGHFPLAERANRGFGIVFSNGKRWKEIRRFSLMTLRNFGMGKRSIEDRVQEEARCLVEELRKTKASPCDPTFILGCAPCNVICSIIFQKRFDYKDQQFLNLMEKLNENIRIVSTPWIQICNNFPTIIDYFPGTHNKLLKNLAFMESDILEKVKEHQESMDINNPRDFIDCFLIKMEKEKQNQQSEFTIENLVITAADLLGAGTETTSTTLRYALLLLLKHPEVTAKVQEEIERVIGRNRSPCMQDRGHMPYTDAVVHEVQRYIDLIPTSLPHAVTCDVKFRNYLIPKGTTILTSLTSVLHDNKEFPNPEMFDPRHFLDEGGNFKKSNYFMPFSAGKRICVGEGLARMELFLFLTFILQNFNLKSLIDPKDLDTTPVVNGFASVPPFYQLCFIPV
Sequence of Latent membrane protein 1 (P03230 whole entry): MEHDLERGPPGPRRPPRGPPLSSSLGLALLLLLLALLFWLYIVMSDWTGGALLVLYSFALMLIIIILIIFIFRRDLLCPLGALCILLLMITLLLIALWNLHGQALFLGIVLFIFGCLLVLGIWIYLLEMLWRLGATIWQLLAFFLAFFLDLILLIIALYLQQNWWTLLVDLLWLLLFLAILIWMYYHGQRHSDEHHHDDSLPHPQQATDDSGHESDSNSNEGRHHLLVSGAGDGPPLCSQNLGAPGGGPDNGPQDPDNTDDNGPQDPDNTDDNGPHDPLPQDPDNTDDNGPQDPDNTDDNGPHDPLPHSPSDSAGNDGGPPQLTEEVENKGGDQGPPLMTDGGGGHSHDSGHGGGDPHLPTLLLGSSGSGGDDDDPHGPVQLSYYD

## O=C1C2CC=CCC2C(=O)N1c1ccc(NCCc2ccccc2)c([N+](=O)[O-])c1 (stereo not given)
[1]
  AC50: 0.209 µM (active)
[2]
  EC50: 13.4 µM (active)
[3]
  AC50: 36.3 µM (active)

## Cc1c(N=C2NC3(CCCCC3)Cc3ccccc32)c(=O)n(-c2ccccc2)n1C
Escherichia coli
  AC50: > 150 µM (inactive)

## O=[N+]([O-])c1ccc(CN2CC=C(c3ccccc3)CC2)cc1
[4]
  AC50: 178 µM (active)

## COc1cc(-c2nnc3sc(-c4cccs4)nn23)cc(OC)c1OC
[5]
  IC50: 1.64 µM (active)
[6]
  IC50: 13.9 µM (inactive)

## Cc1ccc(OCC(=O)NNC(=O)CCC(=O)NCc2ccccc2)cc1
Cytochrome P450 2C19
  AC50: 0.00562 µM (inconclusive)
Cytochrome P450 2D6
  AC50: inconclusive

## OCCN1CCN(C(S)=Nc2ccc(Oc3ccccc3)cc2)CC1
Escherichia coli
  AC50: 82.3 µM (active)

## CCCOc1ccccc1N=C(N)Nc1nc(C)cc(C)n1
[5]
  IC50: 1.29 µM (active)
[6]
  IC50: 2.56 µM (active)

## CN(C)CCCN(C(=O)c1cc(-c2cccs2)nc2ccccc12)c1nc2ccc(F)cc2s1
[7]
  EC50: > 60 µM (not active)
[8]
  EC50: 12.2 µM (active)
[9]
  EC50: 8.08 µM (active)
[10]
  CC50: 25.1 µM (active)
CAAX prenyl protease 2
  AC50: 29 µM (active)

## CC(C)c1onc(C(=O)N2CCN(C(c3ccccc3)c3ccccc3)CC2)c1[N+](=O)[O-]
BJ [11]
  EC50: 0.621 µM (inconclusive)
[12]
  EC50: 3.16 µM (active)
BJ [13]
  EC50: 14.4 µM (inconclusive)
BJ [14]
  EC50: > 150 µM (not active)
[15]
  EC50: 2.69 µM (active)
BJ [16]
  EC50: 5.72 µM (active)

## O=C(NC(=S)NNC(=O)c1ccccc1O)c1cccs1
Exodeoxyribonuclease V
  IC50: 79.9 µM (inactive)
Nonstructural protein 1
  IC50: 10.6 µM (active)
[17]
  IC50: 66.1 µM (inactive)
[18]
  IC50: > 122 µM (inactive)

## Cc1ccc(C)c(-n2c(CNC(=O)c3ccco3)nnc2SCC(=O)N2CCc3ccccc32)c1
Protein skinhead-1
  IC50: > 100 µM (inactive)
fMet-Leu-Phe receptor
  Ki: > 66.7 µM (inactive)
Cytochrome P450 1A2
  AC50: 2.51 µM (inconclusive)
Cytochrome P450 2D6
  AC50: inconclusive

## CN(C)c1ccc(-n2sc3ccccc3c2=O)cc1
[19]
  IC50: 21.4 µM (active)
Phosphomannomutase 2
  IC50: > 100 µM (inactive)
[20]
  IC50: 11.4 µM (inactive)

## O=c1c2ccccc2sn1-c1cccc(S(=O)(=O)Nc2ccc(Cl)cc2)c1
[19]
  IC50: 1.59 µM (active)
Phosphomannomutase 2
  IC50: 9.44 µM (active)
[20]
  IC50: 8.2 µM (inactive)

## O=C(NCCN1CCC(n2c(=O)[nH]c3ccccc32)CC1)c1cc([N+](=O)[O-])cc([N+](=O)[O-])c1
Phospholipase D1
  IC50: 0.27 µM (active)
Phospholipase D2
  IC50: 1.32 µM (active)

## O=C(NCCN1CCC(n2c(=O)[nH]c3ccccc32)CC1)Nc1cccc(F)c1
Phospholipase D1
  IC50: 0.078 µM (active)
Phospholipase D2
  IC50: 2.3 µM (active)

## COc1ccc(/C=C2\CCC/C(=C\C=N\N(C)C)C2=O)cc1
[10]
  CC50: 9.83 µM (active)
[1]
  AC50: 25 µM (active)
Nonstructural protein 1
  IC50: 50.6 µM (active)
[3]
  AC50: 20.8 µM (active)
